Results on 4 compounds are retold here after US6288091A, “Antiherpes virus compounds and methods for their preparation and use” (Boehringer Ingelheim Ltd., priority 1999, dated 2001).

Structures are written as SMILES.

The test has as its system HSV-1 KOS. Put plainly: Cutaneous HSV-1 infection in the SKH-1 hairless mouse model, oral administration. It is filed as in vivo. The conditions noted are these: Human alphaherpesvirus 1, Group 1 Table 1 entries, tid for five days, commencing three hours post infection, in 0.03 N aqueous HCl, read-out: ED50, reduction of viral pathology. As to the method: In addition to the above results, certain Group 1 compounds have been tested against cutaneous HSV-1 infection in the SKH-1 hairless mouse model (P. H. Lee et al., supra). In this instance, viral pathology was monitored using a subjective scoring system and infection was initiated by spreading a viral inoculum (HSV-1 KOS, 7.3×10^7 PFU) over punctured skin.
Still furthermore, oral doses of Entry No.29 of Group 1 at 50 mg/kg/day and 100 mg/kg/day were active in the preceding mouse model when treatment was initiated at 65 h post inoculation. Also, topical treatment of cutaneous HSV-2 infections, namely HG-52 or the acyclovir resistant HSV-2 strain VK-1 (C. S. Crumpacker, New Engl. J. Med., 1989, 320, 293) infections, in the mouse model with the above noted 3% w/w formulation of Entry No. 29 was therapeutically effective, producing a 58 to 72% reduction of viral pathology.
Take `C[C@@H](c1ccccc1)N(CC(=O)Nc1ccc(-c2csc(N)n2)cc1)C(=O)c1ccncc1` [Example 58]: the ED50 stood at 31 mg/kg.
Regarding `Nc1nc(-c2ccc(NC(=O)CN(Cc3ccccc3)C(=O)C3CCCC3)cc2)cs1` [Example 36], the median effective dose (ED50) was 51 mg/kg.
Under `Nc1nc(-c2ccc(NC(=O)CN(Cc3ccncc3)C(=O)C3CCCCC3)cc2)cs1` [Example 49, N-{2-{{4-(2-amino-4-thiazolyl)phenyl}amino}-2-oxoethyl}-N-(4-pyridinylmethyl)cyclohexanecarboxamide] stands 129 mg/kg; under `Nc1nc(-c2ccc(NC(=O)CN(Cc3ccccc3)C(=O)c3ccncc3)cc2)cs1` [Example 29], 56 mg/kg.
